The target in one data set is T1, DNA-PK (h) (Homo sapiens, UniProt P78527).
T1 construct: Eurofins Pharma Discovery Service (contract assay)
In words: DNA-PK kinase inhibitory activity (HTRF, Eurofins). The data set is classed as biochemical. The note with it: ATP: 10 μM. The protocol:
(§1) This experiment was tested at Eurofins Pharma Discovery Service, Reaction Biology Corp. (RBC)
(§2) […] DNA-PK: Mg/ATP; GST-cMyc-p53; EDTA; Ser15 antibody; ATP: 10 μM; biotinylated phosphatidylinositol-3,4,5-triphosphate; GST label GRP1 PH domain; streptavidin and phycocyanin; europium-labelled monoclonal antibody against GST.
DNA-PK (h) was incubated in a determination buffer containing 50 nM GST-cMyc-p53 and Mg/ATP (density as required). The reaction was initiated by adding a mixture of Mg/ATP. After incubating at room temperature for 30 min, a termination solution containing EDTA was added to terminate the reaction. Finally, a detection buffer (containing labeled anti-GST monoclonal antibody and europium-labeled anti-phosphate Ser15 antibody against phosphorylated p53) was added. Then, the board was read in time-resolved fluorescence mode, and a Homogeneous Time Resolved Fluorescence (HTRF) signal was measured according to the formula HTRF=10000×(Em665 nm/Em620 nm).
A general note: In TR-FRET formats the signal depends on donor and acceptor labels being close together.

The next data set deals with T2, PI3K (p110α/p85α) (Homo sapiens, UniProt P42336).
T2 construct: Eurofins Pharma Discovery Service (contract assay)
T2 sequence (P42336 whole entry, species assumed): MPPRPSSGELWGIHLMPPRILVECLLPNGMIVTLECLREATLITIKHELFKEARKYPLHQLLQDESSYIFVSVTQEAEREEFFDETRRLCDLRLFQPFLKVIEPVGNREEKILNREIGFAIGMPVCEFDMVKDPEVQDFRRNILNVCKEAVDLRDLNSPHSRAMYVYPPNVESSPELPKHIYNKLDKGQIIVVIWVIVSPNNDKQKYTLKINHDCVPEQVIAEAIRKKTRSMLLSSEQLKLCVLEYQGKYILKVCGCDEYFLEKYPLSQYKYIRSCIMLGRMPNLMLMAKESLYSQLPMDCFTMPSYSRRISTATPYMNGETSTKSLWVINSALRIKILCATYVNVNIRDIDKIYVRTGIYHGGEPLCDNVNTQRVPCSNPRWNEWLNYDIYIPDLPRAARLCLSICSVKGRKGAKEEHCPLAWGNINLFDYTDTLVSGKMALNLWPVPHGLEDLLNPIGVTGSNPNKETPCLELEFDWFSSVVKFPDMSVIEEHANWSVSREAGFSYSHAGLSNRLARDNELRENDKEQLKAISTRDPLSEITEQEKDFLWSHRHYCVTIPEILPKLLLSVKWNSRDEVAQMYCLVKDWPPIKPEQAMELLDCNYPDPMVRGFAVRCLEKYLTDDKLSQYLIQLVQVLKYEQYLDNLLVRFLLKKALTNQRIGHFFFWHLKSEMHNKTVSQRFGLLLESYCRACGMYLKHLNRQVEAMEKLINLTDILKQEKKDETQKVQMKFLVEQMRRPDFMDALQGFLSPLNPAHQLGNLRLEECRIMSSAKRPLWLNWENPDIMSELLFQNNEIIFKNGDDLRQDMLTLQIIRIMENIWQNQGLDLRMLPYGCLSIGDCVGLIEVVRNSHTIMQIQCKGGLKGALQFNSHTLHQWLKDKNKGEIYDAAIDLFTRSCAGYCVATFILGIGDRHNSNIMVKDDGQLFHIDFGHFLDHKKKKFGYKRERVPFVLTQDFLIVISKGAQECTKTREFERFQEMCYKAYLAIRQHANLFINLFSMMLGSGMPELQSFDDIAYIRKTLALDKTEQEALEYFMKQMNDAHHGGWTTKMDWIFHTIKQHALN
T2 sequence (P27986 whole entry partner, species assumed): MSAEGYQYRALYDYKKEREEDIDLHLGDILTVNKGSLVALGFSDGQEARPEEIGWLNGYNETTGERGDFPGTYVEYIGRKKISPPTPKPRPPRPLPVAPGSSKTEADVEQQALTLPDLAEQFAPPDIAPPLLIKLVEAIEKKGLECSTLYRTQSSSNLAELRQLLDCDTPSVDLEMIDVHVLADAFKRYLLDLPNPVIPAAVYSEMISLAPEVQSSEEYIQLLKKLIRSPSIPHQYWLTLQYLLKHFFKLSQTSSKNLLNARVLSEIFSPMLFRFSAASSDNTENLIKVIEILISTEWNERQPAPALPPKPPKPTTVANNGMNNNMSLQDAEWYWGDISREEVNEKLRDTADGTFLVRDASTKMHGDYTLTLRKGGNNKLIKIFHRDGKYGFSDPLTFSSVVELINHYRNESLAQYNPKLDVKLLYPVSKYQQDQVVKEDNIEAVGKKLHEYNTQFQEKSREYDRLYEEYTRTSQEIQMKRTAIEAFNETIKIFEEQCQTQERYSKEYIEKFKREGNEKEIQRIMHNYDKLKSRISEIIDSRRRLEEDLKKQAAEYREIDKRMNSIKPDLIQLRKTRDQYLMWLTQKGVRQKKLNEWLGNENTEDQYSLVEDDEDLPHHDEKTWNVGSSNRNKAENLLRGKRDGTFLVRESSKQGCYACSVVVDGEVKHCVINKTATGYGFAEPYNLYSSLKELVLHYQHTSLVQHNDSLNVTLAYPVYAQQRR
In words: PI3K (p110α/p85α) kinase inhibitory activity (HTRF). Format: biochemical. Here is the method:
as §1, §2
PI3K (p110α/p85α) was incubated in a determination buffer containing phosphatidylinositol 4,5-diphosphate and Mg/ATP (density as required). The reaction was initiated by adding an ATP solution. After incubating at room temperature for 30 min, a termination solution containing EDTA and biotinylated phosphatidylinositol-3,4,5-triphosphate was added to terminate the reaction. Finally, a detection buffer (containing labeled anti-GST monoclonal antibody, PH domain of GRP1 with GST label and streptavidin and phycyanin and […]) was added. Then, the board was read in time-resolved fluorescence mode, and an HTRF signal was measured according to the formula HTRF=10000×(Em665 nm/Em620 nm).

For a further data set, the target named is T3, PI3K (p110σ/p85α) (Homo sapiens, UniProt O00329).
T3 construct: Eurofins Pharma Discovery Service (contract assay)
T3 sequence (O00329 whole entry): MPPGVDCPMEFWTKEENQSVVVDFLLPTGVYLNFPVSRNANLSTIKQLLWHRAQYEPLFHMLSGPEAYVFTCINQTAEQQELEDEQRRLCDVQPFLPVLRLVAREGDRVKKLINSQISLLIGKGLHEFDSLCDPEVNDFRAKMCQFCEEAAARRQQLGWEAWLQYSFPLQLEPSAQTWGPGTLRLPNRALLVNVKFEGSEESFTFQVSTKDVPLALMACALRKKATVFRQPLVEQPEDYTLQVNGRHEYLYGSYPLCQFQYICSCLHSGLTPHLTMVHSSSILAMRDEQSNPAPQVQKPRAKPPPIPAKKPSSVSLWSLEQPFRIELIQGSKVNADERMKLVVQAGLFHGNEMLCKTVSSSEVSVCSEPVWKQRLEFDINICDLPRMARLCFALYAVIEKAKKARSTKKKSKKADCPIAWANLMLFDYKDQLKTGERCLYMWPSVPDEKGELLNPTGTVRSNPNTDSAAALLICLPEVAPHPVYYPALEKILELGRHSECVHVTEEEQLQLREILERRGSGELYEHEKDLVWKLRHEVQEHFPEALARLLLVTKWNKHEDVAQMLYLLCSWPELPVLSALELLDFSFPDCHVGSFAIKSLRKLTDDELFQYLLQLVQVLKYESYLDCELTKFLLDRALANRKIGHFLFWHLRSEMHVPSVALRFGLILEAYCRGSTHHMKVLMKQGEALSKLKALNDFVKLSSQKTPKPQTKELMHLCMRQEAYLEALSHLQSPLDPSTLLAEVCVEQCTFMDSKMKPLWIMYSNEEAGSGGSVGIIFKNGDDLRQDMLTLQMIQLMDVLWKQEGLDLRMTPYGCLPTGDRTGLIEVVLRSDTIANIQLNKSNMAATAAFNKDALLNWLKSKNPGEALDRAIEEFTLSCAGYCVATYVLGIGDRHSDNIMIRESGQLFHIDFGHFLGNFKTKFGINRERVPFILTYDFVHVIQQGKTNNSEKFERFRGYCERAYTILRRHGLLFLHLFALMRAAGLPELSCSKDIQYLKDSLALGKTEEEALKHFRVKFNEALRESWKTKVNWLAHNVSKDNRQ
T3 sequence (P27986 whole entry partner): as the sequence (P27986 whole entry partner, species assumed) above
In words: PI3K (p110σ/p85α) kinase inhibitory activity (HTRF). The data set is classed as biochemical.

Data set [1] in a line: Pharmacokinetic evaluation in mice, IV and PO. Format: in vivo, Balb/c female mice. The settings on record: for Tlast / AUC(0-t) / C0 / clearance / half-life / Vd / Cmax / Tmax: mouse plasma; for bioavailability / AUC(0-t) / C0 / clearance / half-life / Vd / Cmax / Tmax: female, Balb/c; for bioavailability: plasma, mouse; for Vd: read-out: Vdss; for Tmax: read-out: Tmax. Here is the method:
The tested compound was mixed with 10% DMSO/50% PEG400/40% water, vortexized and ultrasonic to prepare 0.2 mg/mL or 0.4 mg/ml, approximately clarified solution, which was filtered by a microporous membrane and then standby. Balb/c female mice of 18-20 g were selected and given the candidate compound solution intravenously at a dose of 1 or 2 mg/kg. The tested compound was mixed with 10% DMSO/50% PEG400/40% water, vortexized and ultrasonic to prepare 0.2 mg/mL or 1 mg/mL approximately clarified solution, which was filtered by a microporous membrane and then standby. Balb/c female mice of 18 to 20 g were selected and given orally the candidate compound solution at a dose of 2 or 10 mg/kg. Whole blood was collected for a certain period of time, and plasma was prepared. Drug concentration was analyzed by LC-MS/MS method, and pharmacokinetic parameters were calculated by Phoenix WinNonlin software (US Pharsight company).
C0: instantaneous concentration required after intravenous injection; Cmax: the highest blood concentration after administration; Tmax: time required to reach peak concentration after administration; T1/2: the time required for blood drug concentration to decrease by half; Vdss: apparent volume of distribution, which refers to the ratio constant of drug dosage to blood concentration when a drug reaches dynamic equilibrium in vivo. Cl: clearance rate, referring to drug apparent distribution volume number removed from the body per unit time; Tlast: time of last detection point: AUC0-last: an area under a drug duration curve, referring to an area surrounded by the blood drug concentration curve on the time axis; Bioavailability: a measure of the rate and extent of drug absorption into the blood circulation, which was an important index to evaluate drug absorption degree.

In the case of `COc1ccc(C(O)c2cc(-c3cnnc4cc(N5CCOCC5)ccc34)c(F)cc2Cl)nn1` (centres unmarked) [Embodiment 3], the half-inhibitory concentration (IC50) (as a rule, the point on the concentration scale where inhibition reaches its midpoint) against DNA-PK (h) amounted to 0.0035 µM. The IC50 on PI3K (p110α/p85α) was 0.509 µM. Half-maximal inhibition against PI3K (p110σ/p85α) (IC50) was put at 0.132 µM. In addition, in data set [1] (IV(1 mg/kg)), the “Tlast” value came to 8.00 h; the AUC(0-t) (usually exposure summed from dosing to a finite time, without extrapolation to infinity) was found to be 1.85 µM·h; the C0 worked out at 1260 nM; the clearance turned out to be 17.9 mL/min/kg. Moreover, in data set [1] (IV(1 mg/kg)), the half-life (usually the time needed for the level to fall by half in the phase considered) is 1.27 h and the Vd came to 1.42 L/kg. In data set [1] (PO(2 mg/kg)), the “Tlast” value was found to be 8.00 h; the bioavailability (in general, dose-corrected exposure relative to a reference, in per cent) worked out at 48.2%; the area under the curve AUC(0-t) was 1.79 µM·h; the highest level (Cmax) was 459 nM. Further, in data set [1] (PO(2 mg/kg)), the half-life is 2.83 h and the time to peak (Tmax) – broadly, the time at which the peak concentration occurs – worked out at 0.5 h.

At DNA-PK (h), `COc1ccc(C(O)c2cc(-c3ccnc4c(F)c(N5CCOCC5)cc(F)c34)c(F)cc2Cl)nn1` (single isomer, unassigned) [Embodiment 22] had an IC50 of 0.0008 µM. Besides, the concentration for half-maximal inhibition (IC50) at PI3K (p110α/p85α) is 0.043 µM. Further, at PI3K (p110σ/p85α), 0.047 µM corresponded to half-maximal inhibition (IC50). In data set [1] (IV(1 mg/kg)), the “Tlast” value turned out to be 8.00 h, the AUC(0-t) stood at 1.98 µM·h, the C0 was determined as 1380 nM and the clearance came out at 15.4 mL/min/kg. Also, in data set [1] (IV(1 mg/kg)), the half-life was 1.89 h and the Vd turned out to be 2.32 L/kg. In data set [1] (PO(2 mg/kg)), the “Tlast” value is given as 8.00 h, the bioavailability was 50%, the AUC(0-t) came to 1.98 µM·h and the concentration peaked (Cmax) at 456 nM. In data set [1] (PO(2 mg/kg)), the half-life is 6.25 h and the Tmax worked out at 1 h.

The compound `COc1ccc(C(O)c2cc(-c3cc(N)nc4cc(N5CCOCC5)cc(F)c34)c(F)cc2Cl)nn1` (centres unmarked) [Embodiment 13] yielded an IC50 on DNA-PK (h) of 0.141 µM.

`COc1ccc(C(O)c2cc(-c3cc(N)nc4cc(N5CCOCC5)ccc34)c(F)cc2Cl)nn1` (centres unmarked) [Embodiment 11] yielded an IC50 against DNA-PK (h) of 0.0047 µM.

The record behind these values is patent US20220267310A1, “QUINAZOLINE AND CINNOLINE DERIVATIVES AS DNA-PK INHIBITOR” (MEDSHINE DISCOVERY INC., priority 2019, published 2022).
